This note sets out measurements from patent US11161823B2, “Anticancer 1,3-dioxane-4,6-dione derivatives and method of combinatorial synthesis thereof” (National Guard Health Affairs, priority 2019, dated 2021).

The IC50 is the concentration at which inhibition is half-maximal.

Assay [1] concerns MDA-MD 231 (breast), MCF-7 (breast), KAIMRC1 (breast), HCT116 (colon) and HCT8 (colon). Kind of assay: MTT assay, review of Tables 5 and 6 (whole cell line panel). In kind it is cell-based, human. Conditions: review of Tables 5 and 6, MTT IC50. Here is the method: (§1) Cell Culture: The human breast cancer epithelial cell lines MDA-MB-231 (HTB-26™), MCF-7 (HTB-22™), colon cancer cell lines HCT 116 (CCL-247™) and […] (CCL-244™) were obtained from American Type Culture Collection (ATCC). Additionally, KAIMRC1 cell line was isolated and developed at KAIMRC from a breast cancer patient. All the cells were grown in advanced DMEM containing 10% fetal bovine serum (FBS), 50 units/mL penicillin, 50 ug/mL streptomycin (GIBCO), and 2 mM glutamine (GIBCO). The cells were cultured at 37° C. in a humidified 5% CO2 atmosphere for 24 hours before experimental procedure.
(§2) Cell Proliferation Assay (MTT): Cells were plated on flat-bottom 96-well plates at a density of 5×10^3 cells/well in 100 μL growth medium. Serial dilutions of the compounds, ranging from 100 nM-100 μM were tested on the cells in triplicates. Additional rows with only the compounds and only cells were added in order to account for the compounds and cells effect. Cells were incubated with compounds for 48 h at 37° C. with 5% CO2.
(§3) After 48 h treatment, the cell viability was determined using the MTT viability assay. Briefly, 5 μL of MTT reagent (5 mg/mL stock) per 95 μl cell culture medium was added to each well and incubated for 3 h at 37° C. with 5% CO2. After 3 h the supernatant was removed, and the MTT formazan crystals were dissolved in dimethyl sulfoxide (DMSO) by shaking the plate for 30 mins at RT. The absorbance was measured on Molecular Devices microplate absorbance reader at 560 nm. The percentage of viable cells was calculated as the ratio of the absorbance of the treated group divided by the absorbance of the control group multiplied by 100. The absorbance from the untreated control cells was set as 100% viable. IC50 values were calculated from dose-response curves generated using a polynomial dose-response approximation using Prism 8 software. The IC50 values (µM) obtained for the compounds of present invention on MDA-MD 231 (breast), MCF-7 (breast), KAIMRC1 (breast), HCT116 (colon) and HCT8 (colon) are summarized in Table 5 and 6.
The presence of nitrogen in certain positions of quinoline and/or iso-quinoline ring is the structure-activity determinant, and the subsequent variations in the nitrogen positions and substituents in this ring produce stronger leads by the methods of combinatorial expansion disclosed herein.
(Formazan colour is commonly taken as a measure of viable cells.)

Assay [2] relates to MDA MB-231 cell line (Breast). Kind of assay: MTT cell proliferation assay, MDA MB-231. In kind it is cell-based, human. Conditions: Homo sapiens, MDA-MB-231; MTT, 48 h treatment, medium with 10% FBS; read-out: IC50 μM MDA MB-231 (Breast). The method, then: as §1, §2, §3
The subject of assay [3] is KAIMRC1 (Breast). Briefly: MTT cell proliferation assay, KAIMRC1. It counts as cell-based, human. Conditions: Homo sapiens; MTT, 48 h treatment, medium with 10% FBS; read-out: IC50 μM KAIMRC1 (Breast).
Excerpt: The immortalized cell lines included in the testing panel of this disclosure are MCF7 (a breast cancer cell line), MCF10 (immortalized human breast epithelial cells), MDA-MB231 (an epithelial, human breast cancer cell line that was established from a pleural effusion of a patient with a metastatic mammary adenocarcinoma), KAIMRC1 (a naturally immortalized human breast carcinoma cell line), KAIMRC2 (a naturally immortalized breast cancer cell line). The primary cells available for lead toxicity assays are, without limitation: hepatocytes (supplied by Xenotech, Bioscience Lonza, Accegen, Biocompare, Gibco, Zen-Bio, Takarabio, AxolBio, Creative Bioarray), cardiomyocytes (supplied by Cellartis, Axolbio, Cedarlanelabs, EMD Millipore, Takara Bio, Neuromics, AcceGene), primary neurons (AcceGen, Cellapplications, Neuromics, Biocompare, AxolBio, BrainXcell), endothelial lining (Thermofisher, Accegen, Biocompare, Promocell, ATCC). Multicellular 3D organoids raised by differentiating iPSC (induced pluripotent stem cells) are provided by Sigma Aldrich (the iPSC cell lines, organoids), Tocris Bioscience, Thermofisher, Stemcell Technologies, Takara Bio, Emulatebio (Human organ chips), Prodolabs.
as §1, §2, §3

Assay [4] concerns ThP1 (leukemia). Briefly: Cell Titre Glo luminescent cell viability assay, ThP1. In kind it is cell-based. Conditions: Homo sapiens, THP-1; Cell Titre Glo luminescence, normalized to DMSO controls.
Excerpt: (§4) Another embodiment discloses Titer Glo Assay for the characterization of the synthesized compounds. The CellTiter-Glo® Luminescent Cell Viability Assay is a homogeneous method of determining the number of viable cells in culture based on quantitation of the ATP present, an indicator of metabolically active cells. The CellTiter-Glo® Assay is designed for use with multiwell formats, making it ideal for automated high-throughput screening (HTS), cell proliferation, and cytotoxicity assays. The homogeneous assay procedure involves adding the single reagent (CellTiter-Glo® Reagent) directly to cells cultured in serum-supplemented medium. Cell washing, removal of medium, and multiple pipetting steps are not required. The system detects as few as 15 cells/well in a 384-well format in 10 minutes after adding reagent and mixing.
as §1
(§5) Cell Titre Glo assay was performed on two Leukemia cell lines, HL 60 and ThP1 as per manufacturer's (Promega) recommendations. Briefly, plates were prepared as mentioned in cell culture section. 100 µL of Cell Titre Glo was added directly to the wells. After incubation for 30 minutes at room temperature, luminescence was measured using the Envision plate reader (Perkin Elmer). Luminescence readings were normalized to averaged DMSO controls and expressed as relative percentage. IC50 values were calculated from dose-response curves generated using a polynomial dose-response approximation using Prism 8 software.

Assay [5] concerns HCT 8 (Colon). Briefly: MTT cell proliferation assay, HCT 8. It counts as cell-based, human. Conditions: Homo sapiens, HCT-8; MTT, 48 h treatment, medium with 10% FBS; read-out: IC50 μM HCT 8 (Colon). Here is the method:
as §1, §2, §3

Assay [6] relates to MCF-7 (Breast). Briefly: MTT cell proliferation assay, MCF-7. In kind it is cell-based, human. Conditions: Homo sapiens, MCF7; MTT, 48 h treatment, medium with 10% FBS; read-out: IC50 μM MCF-7 (Breast). Here is the method:
as §1, §2, §3

Assay [7] relates to HCT116 (Colon). Briefly: MTT cell proliferation assay, HCT116. In kind it is cell-based, human. Conditions: Homo sapiens, HCT-116; MTT, 48 h treatment, medium with 10% FBS; read-out: IC50 μM HCT116 (Colon). The method, then:
as §1, §2, §3

Assay [8] relates to HL 60 (leukemia). Kind of assay: Cell Titre Glo luminescent cell viability assay, HL 60. Conditions: Homo sapiens, HL-60; Cell Titre Glo luminescence, normalized to DMSO controls. In kind it is cell-based.
Excerpt: as §4, §1, §5

Take `CCC1(C)OC(=O)C(=C/C=C/c2ccncc2)C(=O)O1` (stereo not drawn) [Example 9, 2-ETHYL-2-METHYL-5-(3-PYRIDIN-4-YL-ALLYLIDENE)-[1,3]DIOXANE-4,6-DIONE]: the “range of activity compared with Mitoxanthrone” value in assay [1] is given as “range of activity that begins to overlap with that of Mitoxanthrone”. In addition, the concentration for half-maximal inhibition (IC50) came to 5.03 µM in assay [2]; 21.6 µM in assay [3]; 2.81 µM in assay [4]; 2.17 µM in assay [5]; 24.2 µM in assay [6]; 3.54 µM in assay [7].

With `CC1(C)OC(=O)C(=CC=Cc2cncc3ccccc23)C(=O)O1` [Example 10, 5-(3-ISOQUINOLIN-4-YL-ALLYLIDENE)-2,2-DIMETHYL-[1,3]DIOXANE-4,6-DIONE], the “range of activity compared with Mitoxanthrone” value in assay [1] was “range of activity that begins to overlap with that of Mitoxanthrone”. Besides, the concentration for half-maximal inhibition (IC50) in assay [3] worked out at 4.45 µM; in assay [4], 1.51 µM; in assay [5], 1.37 µM.

Take `CCC1(C)OC(=O)C(=CC=Cc2cncc3ccccc23)C(=O)O1` (stereo not drawn) [Example 12, 2-ETHYL-5-(3-ISOQUINOLIN-4-YL-ALLYLIDENE)-2-METHYL-[1,3]DIOXANE-4,6-DIONE]: the “range of activity compared with Mitoxanthrone” value in assay [1] is “range of activity that begins to overlap with that of Mitoxanthrone”. The IC50 in assay [2] came to 6.05 µM; in assay [3] it was 4.25 µM; in assay [4], 1.82 µM; in assay [8], 2.05 µM; in assay [5], 1.87 µM; in assay [6], 9.29 µM. Besides, the IC50 in assay [7] worked out at 2.47 µM.

Turning to `CCC1(C)OC(=O)C(=CC=Cc2ccnc3ccccc23)C(=O)O1` (stereo not drawn) [Example 13, 2-ETHYL-2-METHYL-5-(3-QUINOLIN-4-YL-ALLYLIDENE)-[1,3]DIOXANE-4,6-DIONE], in assay [1], the “range of activity compared with Mitoxanthrone” value is recorded as “range of activity that begins to overlap with that of Mitoxanthrone”. Also, the IC50 in assay [2] turned out to be 11 µM; in assay [3] it was 14.4 µM; in assay [4], 0.88 µM; in assay [8] it was 1.04 µM; in assay [5] it was 19.8 µM; in assay [6] it was 9.15 µM. Further, the IC50 in assay [7] was determined as 6.38 µM.
